One data set addresses T1, TR-α (Homo sapiens, UniProt P10827).
T1 sequence (P10827 1-410 isoform P10827-2): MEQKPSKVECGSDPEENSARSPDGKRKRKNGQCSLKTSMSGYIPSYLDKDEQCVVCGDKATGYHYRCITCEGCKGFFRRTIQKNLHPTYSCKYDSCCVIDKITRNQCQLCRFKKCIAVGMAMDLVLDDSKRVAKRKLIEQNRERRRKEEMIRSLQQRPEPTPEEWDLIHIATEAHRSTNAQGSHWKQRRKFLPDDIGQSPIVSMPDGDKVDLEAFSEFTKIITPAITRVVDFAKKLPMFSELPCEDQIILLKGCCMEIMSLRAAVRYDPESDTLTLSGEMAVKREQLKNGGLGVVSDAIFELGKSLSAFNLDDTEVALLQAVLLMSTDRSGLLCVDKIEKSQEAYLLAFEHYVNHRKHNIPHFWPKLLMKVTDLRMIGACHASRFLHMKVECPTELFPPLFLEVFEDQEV
Kind of data set: In vitro TR-α activity (in-house protocol). It is filed as cell-based. The procedure:
(§1) In vitro TR-α & TR-β activities were determined as per in-house protocols and the results of representative compounds are provided in tables 1 & 2 below as a proof of the efficacies of the novel class of compounds disclosed above.

In another data set the target is T2, TR-β (Homo sapiens, UniProt P10828).
T2 sequence (P10828 1-461): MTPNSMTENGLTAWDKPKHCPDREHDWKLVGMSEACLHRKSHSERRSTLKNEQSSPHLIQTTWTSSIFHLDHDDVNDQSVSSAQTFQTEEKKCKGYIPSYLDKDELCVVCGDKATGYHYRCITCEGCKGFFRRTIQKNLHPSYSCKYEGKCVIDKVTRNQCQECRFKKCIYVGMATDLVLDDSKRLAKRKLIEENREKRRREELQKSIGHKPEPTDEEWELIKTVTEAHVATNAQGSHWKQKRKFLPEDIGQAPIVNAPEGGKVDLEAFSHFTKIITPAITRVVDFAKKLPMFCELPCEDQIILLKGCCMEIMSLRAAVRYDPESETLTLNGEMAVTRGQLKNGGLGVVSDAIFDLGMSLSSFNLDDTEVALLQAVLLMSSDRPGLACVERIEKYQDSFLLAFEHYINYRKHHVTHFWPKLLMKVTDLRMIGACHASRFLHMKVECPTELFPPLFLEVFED
The experiment in a line: In vitro TR-β activity (in-house protocol). It is filed as cell-based. The procedure:
as §1

The test system of the next data set is cholesterol-fed rats. Kind of data set: Cholesterol lowering and change in heart rate in cholesterol-fed rats. It is filed as in vivo, rat. The note with it: treated for 7 days. The procedure: Cholesterol lowering effect of T3 and selected compounds disclosed in the present invention on cholesterol lowering and change in heart rate in cholesterol-fed rats (treated for 7 days) was determined according to the general protocol described in PNAS, vol. […] Therefore, these compounds have the potential to be further developed as selective TR-beta agonists for the treatment of human & other animals in need of such treatment.

Each structure is given as a SMILES string.

What is called EC50 is the concentration that produces a half-maximal response. High values mean weaker potency, low ones greater potency. The compound `CC(ON=Cc1cc(Br)c(Oc2ccc(O)c(C(C)C)c2)c(Br)c1)C(=O)O` (centres unmarked) [Example 10, 2-(((3,5-dibromo-4-(4-hydroxy-3-isopropylphenoxy)benzylidene)amino)oxy)propanoic acid] came in with an EC50 at TR-α of 25 nM. This compound had a half-maximal effective concentration (EC50) on TR-β of 3.25 nM. In addition, in the data set with cholesterol-fed rats (oral 0.2 mg/kg), the “% Change in Heart Rate” value turned out to be 9.5% and the “% Change in Total Cholesterol” value was −45%.
Take `CC(C)c1cc(Oc2c(Br)cc(C=NOCC(=O)O)cc2Br)ccc1O` [Example 3, 2-(((3,5-dibromo-4-(4-hydroxy-3-isopropylphenoxy)benzylidene)amino)oxy)acetic acid]: the fold induction at 0.001 µM turned out to be 18.3 on TR-α (Conc. 1 nM, read-out: TR-α Fold Induction w.r.t T3(100 nm)) and 17.7 at TR-β (Conc. 1 nM, read-out: TR-β Fold Induction w.r.t T3(100 nm)). The fold induction at 0.01 µM turned out to be 38.5 at TR-α (Conc. 10 nM, read-out: TR-α Fold Induction w.r.t T3(100 nm)) and 49.5 at TR-β (Conc. 10 nM, read-out: TR-β Fold Induction w.r.t T3(100 nm)). Moreover, the fold induction at 0.1 µM at TR-α (Conc. 100 nM, read-out: TR-α Fold Induction w.r.t T3(100 nm)) was 93.8; on TR-β (Conc. 100 nM, read-out: TR-β Fold Induction w.r.t T3(100 nm)), 92.1. Besides, the fold induction at 1 µM at TR-α (Conc. 1000 nM, read-out: TR-α Fold Induction w.r.t T3(100 nm)) was 133; on TR-β (Conc. 1000 nM, read-out: TR-β Fold Induction w.r.t T3(100 nm)), 138. Also, the “% Change in Heart Rate” value in the data set with cholesterol-fed rats (oral 0.5 mg/kg) is recorded as 4.2%. Moreover, the “% Change in Total Cholesterol” value in the data set with cholesterol-fed rats (oral 0.5 mg/kg) was −68%.

The values above are taken from patent US20110301200A1, “THYROID RECEPTOR LIGANDS” (CADILA HEALTHCARE LIMITED, priority 2008, published 2011).
